In ChEMBL document CHEMBL1150308, “Cytotoxic constituents from Brazilian red propolis and their structure-activity relationship” (Bioorg Med Chem, 2008):

What was measured:
Type in all cases: functional, cell-based
HT-1080 = assay: Cytotoxicity against human HT1080 cells after 72 hrs by MTT assay; conditions: HT-1080, 72 h
[1] = Cytotoxicity against mouse LLC cells after 72 hrs by MTT assay; conditions: Lewis lung carcinoma
[2] = Cytotoxicity against mouse colon 26-L5 cells after 72 hrs by MTT assay
HeLa = assay: Cytotoxicity against human HeLa cells after 72 hrs by MTT assay
[3] = Cytotoxicity against mouse B16-BL6 cells after 72 hrs by MTT assay; conditions: B16-BL6, 72 h
A549 = assay: Cytotoxicity against human A549 cells after 72 hrs by MTT assay; conditions: A549, 72 h

| SMILES | IC50 (HT-1080) [µM] | IC50 [1] [µM] | IC50 [2] [µM] | IC50 (HeLa) [µM] | IC50 [3] [µM] | IC50 (A549) [µM] |
| --- | --- | --- | --- | --- | --- | --- |
| COc1cc([C@@H]2OC[C@@H]3[C@H]2CO[C@H]3c2ccc(O)c(OC)c2)ccc1O [(+)-PINORESINOL] | > 100 | > 100 | > 100 | 92.5 | > 100 | > 100 |
| COc1ccc([C@H]2COc3cc(O)ccc3C2=O)c(O)c1 | > 100 | > 100 | 67 | > 100 | > 100 | > 100 |
| COc1ccc([C@H]2COc3cc(OC)ccc3C2)c(O)c1 | 50.1 | 24 | 29.8 | 44.3 | 24.1 | 46 |
| O=c1[nH]cc(F)c(=O)[nH]1 [FLUOROURACIL] | 9.45 | 2.59 | 0.46 | 0.77 | 5.78 | 9.19 |
| O=C(/C=C/c1ccc(O)cc1)c1ccc(O)cc1O [ISOLIQUIRITIGENIN] | 76.7 | 84 | 21.8 | 82.6 | 80.5 | 98.9 |
| O=C(/C=C/c1ccccc1)c1ccc(O)cc1O [2',4'-DIHYDROXYCHALCONE] | 34 | 39.5 | 7.4 | 23.1 | 44.3 | 41.6 |
| COc1ccc2c(c1)O[C@H]1c3ccc(O)c(O)c3OC[C@@H]21 | > 100 | > 100 | 54.1 | > 100 | > 100 | > 100 |
| COc1ccc(-c2coc3cc(O)ccc3c2=O)c(O)c1 [XENOGNOSIN B] | > 100 | > 100 | 49.3 | 69.8 | 34.1 | > 100 |
| CCO[C@@]12COc3cc(O)ccc3[C@@H]1Oc1cc(OC)ccc12 | > 100 | > 100 | > 100 | > 100 | > 100 | > 100 |
| C=C[C@@H](c1ccccc1)c1cc(O)c(OC)cc1OC | > 100 | > 100 | 60.3 | 60.1 | 53.8 | 73.7 |
| COc1ccc2c(c1O)O[C@@H]1c3ccc(O)cc3OC[C@H]21 | > 100 | 57.2 | 68.1 | 61.2 | 47.5 | > 100 |
| O=C(c1ccc(O)cc1O)[C@@H](O)Cc1ccc(O)cc1 | > 100 | > 100 | > 100 | > 100 | > 100 | > 100 |
| COc1cc([C@H]2OC[C@H]3[C@@H]2CO[C@@H]3c2cc(OC)c(O)c(OC)c2)cc(OC)c1O [SYRINGARESINOL] | > 100 | > 100 | > 100 | > 100 | > 100 | > 100 |
| COc1ccc([C@H]2COc3cc(O)ccc3C2=O)c(OC)c1O | > 100 | > 100 | > 100 | > 100 | > 100 | > 100 |
| O=C1c2ccc(O)cc2O[C@H](c2ccccc2)[C@H]1O | > 100 | > 100 | > 100 | > 100 | > 100 | > 100 |
| COc1ccc(-c2coc3cc(O)ccc3c2=O)cc1O [CALYCOSIN] | > 100 | > 100 | 98 | > 100 | > 100 | > 100 |
| COc1ccc(-c2coc3cc(O)cc(O)c3c2=O)cc1 [BIOCHANIN] | > 100 | > 100 | 98 | > 100 | > 100 | > 100 |
| COc1cc2c(cc1OC)[C@@H]1COc3cc(O)ccc3[C@@H]1O2 [SECUNDIFLOROL I] | > 100 | > 100 | 44.5 | 84.3 | 64.9 | > 100 |
| COc1ccc(-c2coc3cc(O)ccc3c2=O)cc1 [FORMONONETIN] | > 100 | > 100 | 83.6 | > 100 | > 100 | > 100 |
| COc1cc(O)ccc1C(=O)/C=C/c1ccc(O)cc1 | 51.2 | 69.1 | 12.3 | 67.9 | 56.3 | 62.1 |
| COc1cc(O)ccc1[C@H]1COc2cc(O)ccc2C1 | 75.3 | > 100 | 49.8 | 77.1 | 33.6 | > 100 |

| SMILES | IC50 (HT-1080) [µM] | IC50 [1] [µM] | IC50 [2] [µM] | IC50 (HeLa) [µM] | IC50 [3] [µM] | IC50 (A549) [µM] |
| --- | --- | --- | --- | --- | --- | --- |
| COc1cc2c(cc1O)O[C@H](c1ccccc1)[C@@H](O)C2=O | > 100 | > 100 | > 100 | > 100 | > 100 | > 100 |
| O=C1C[C@@H](c2ccccc2)Oc2cc(O)c(O)c(O)c21 | > 100 | > 100 | 53.4 | > 100 | > 100 | > 100 |
| COc1ccc(-c2coc3cc(O)cc(O)c3c2=O)cc1O [PRATENSEIN] | > 100 | > 100 | > 100 | > 100 | > 100 | > 100 |
| O=C1C[C@@H](c2ccc(O)cc2)Oc2cc(O)ccc21 [LIQUIRTIGENIN] | > 100 | > 100 | 56.6 | > 100 | 97.7 | > 100 |
| COc1cc2c(cc1O)O[C@H](c1ccccc1)CC2=O | 7.9 | 9.3 | 5.9 | 5.6 | 6.7 | 8.6 |
| O=C1c2ccc(O)cc2O[C@H](c2ccc(O)cc2)[C@H]1O [GARBANZOL] | > 100 | > 100 | > 100 | > 100 | > 100 | > 100 |
| O=C1C[C@@H](c2ccc(O)cc2)Oc2cc(O)cc(O)c21 [NARINGENIN] | > 100 | > 100 | > 100 | > 100 | > 100 | > 100 |
| COc1c(O)cc2oc(-c3ccccc3)c(O)c(=O)c2c1O [ALNUSIN] | > 100 | > 100 | > 100 | > 100 | > 100 | > 100 |
| COc1ccc([C@H]2OC[C@H]3[C@@H]2CO[C@@H]3c2ccc(OC)c(OC)c2)cc1OC [(+)-EUDESMIN] | > 100 | > 100 | > 100 | > 100 | > 100 | > 100 |
| COc1ccc2c(c1)O[C@H]1c3ccc(O)c(OC)c3OC[C@@H]21 | 96.3 | 97.6 | 29.4 | 47.1 | > 100 | 97.3 |
| O=c1c(-c2ccc(O)cc2)coc2cc(O)ccc12 [DAIDZEIN] | > 100 | > 100 | 88.1 | > 100 | > 100 | > 100 |
| COc1ccc(-c2coc3cc(O)cc(O)c3c2=O)c(O)c1 | > 100 | > 100 | 93.6 | > 100 | > 100 | > 100 |
| COc1ccc2c(C)c(-c3ccc(O)cc3O)oc2c1 | 38.7 | 34.4 | 27.8 | 36.1 | 44.8 | 42.6 |
| COc1c(O)cc2c(c1O)C(=O)[C@H](O)[C@@H](c1ccccc1)O2 [ALNUSTINOL] | > 100 | > 100 | > 100 | > 100 | > 100 | > 100 |
| COc1c(O)cc2c(c1O)C(=O)C[C@@H](c1ccccc1)O2 [DIHYDROOROXYLIN A] | 47.6 | 82.7 | 49 | 39.3 | 72.6 | 38 |
| O=C1c2ccc(O)cc2OC1(O)Cc1ccc(O)cc1 (configuration not stated) | > 100 | > 100 | 25.9 | > 100 | > 100 | > 100 |
| COc1ccc([C@H]2COc3cc(O)cc(O)c3C2=O)c(O)c1 | > 100 | > 100 | 71.3 | > 100 | > 100 | > 100 |
| COc1ccc([C@H]2COc3cc(O)ccc3C2)c(O)c1 | > 100 | 92.3 | 67 | 72.6 | 57.4 | > 100 |
| COc1ccc2c(c1)O[C@@H]1c3ccc(O)cc3OC[C@H]21 | 28.4 | 17.2 | 11.3 | 23.4 | 42.4 | 39.5 |
| COc1ccc([C@H]2COc3cc(O)ccc3C2)c(OC)c1O [MUCRONULATOL] | 18.2 | 8.4 | 7.3 | 24.2 | 30.4 | 9.9 |
| COc1cccc2c1C(=O)c1c(O)c3c(c(O)c1C2=O)C[C@@](O)(C(=O)CO)C[C@@H]3O[C@H]1C[C@H](N)[C@H](O)[C@H](C)O1 [DOXORUBICIN] | 9.32 | 8.04 | 0.33 | 0.68 | 8.05 | 7.88 |
